In the supplement of paper PMC13380429:
± gives the standard deviation of the averaged measurements.

Legend:
Conditions in all cases: 72 h
Calu-3 [1] = experiment: relative viability EC50 (midpoint between 100% and the lowest measured viability); higher = less toxic
U2OS [2] = experiment: as above
HepG2 [3] = experiment: as above
Caco-2 [4] = experiment: as above
Vero E6 [5] = experiment: as above
Calu-3 [6] = experiment: drug sensitivity score (DSS) for viability; higher = more toxic; extreme values may be limits of the assay
U2OS [7] = experiment: as above
HepG2 [8] = experiment: as above
Caco-2 [9] = experiment: as above
Vero E6 [10] = experiment: as above
Calu-3 [11] = experiment: cell viability relative to DMSO; higher = less toxic
U2OS [12] = experiment: as above
HepG2 [13] = experiment: as above
Caco-2 [14] = experiment: as above
Vero E6 [15] = experiment: as above

Structure (SMILES) | relative viability EC50 (Calu-3 [1]) [µM] | relative viability EC50 (U2OS [2]) [µM] | relative viability EC50 (HepG2 [3]) [µM] | relative viability EC50 (Caco-2 [4]) [µM] | relative viability EC50 (Vero E6 [5]) [µM] | drug sensitivity score (Calu-3 [6]) | drug sensitivity score (U2OS [7]) | drug sensitivity score (HepG2 [8]) | drug sensitivity score (Caco-2 [9]) | drug sensitivity score (Vero E6 [10]) | cell viability (Calu-3 [11]; 1 nM) [%] | cell viability (Calu-3 [11]; 10 nM) [%] | cell viability (Calu-3 [11]; 100 nM) [%] | cell viability (Calu-3 [11]; 1000 nM) [%] | cell viability (Calu-3 [11]; 10000 nM) [%] | cell viability (U2OS [12]; 1 nM) [%] | cell viability (U2OS [12]; 10 nM) [%] | cell viability (U2OS [12]; 100 nM) [%] | cell viability (U2OS [12]; 1000 nM) [%] | cell viability (U2OS [12]; 10000 nM) [%] | cell viability (HepG2 [13]; 1 nM) [%] | cell viability (HepG2 [13]; 10 nM) [%] | cell viability (HepG2 [13]; 100 nM) [%] | cell viability (HepG2 [13]; 1000 nM) [%] | cell viability (HepG2 [13]; 10000 nM) [%] | cell viability (Caco-2 [14]; 1 nM) [%] | cell viability (Caco-2 [14]; 10 nM) [%] | cell viability (Caco-2 [14]; 100 nM) [%] | cell viability (Caco-2 [14]; 1000 nM) [%] | cell viability (Caco-2 [14]; 10000 nM) [%] | cell viability (Vero E6 [15]; 1 nM) [%] | cell viability (Vero E6 [15]; 10 nM) [%] | cell viability (Vero E6 [15]; 100 nM) [%] | cell viability (Vero E6 [15]; 1000 nM) [%] | cell viability (Vero E6 [15]; 10000 nM) [%]
CS(=O)(=O)c1ccc([C@@H](O)[C@@H](CF)NC(=O)C(Cl)Cl)cc1 [florfenicol] | > 10 | > 10 | 2.11 | > 10 | > 10 | 0 | 0 | 3.9 | 0 | 0 | 93.7 | 90.8 | 86.2 | 103 | 98.8 | 99.9 | 96.2 | 99.1 | 98.3 | 99.5 | 107 | 91 | 115 | 93.1 | 48 | 109 | 99.9 | 107 | 97.1 | 96 | 100 | 104 | 95.9 | 104 | 95.2
Cc1ccc(S(=O)(=O)n2c(N)nc3ccccc32)cc1 [ML130] | > 10 | > 10 | > 10 | > 10 | > 10 | 0 | 0 | 0 | 0 | 0 | 103 | 89.2 | 99.5 | 101 | 103 | 104 | 108 | 105 | 103 | 97.3 | 98 | 107 | 111 | 100 | 104 | 107 | 97 | 107 | 101 | 90.5 | 103 | 108 | 103 | 109 | 96.2
NC[C@H]1O[C@H](O[C@H]2[C@H](O)[C@@H](O[C@H]3O[C@H](CO)[C@@H](O)[C@H](N)[C@H]3O)[C@H](N)C[C@@H]2N)[C@H](N)C[C@@H]1O [tobramycin] | > 10 | > 10 | > 10 | > 10 | > 10 | 0 | 0 | 0 | 0 | 0 | 99.4 | 102 | 101 | 98.5 | 102 | 95 | 103 | 97.6 | 100 | 108 | 108 | 94.5 | 104 | 97.6 | 106 | 90.2 | 92.8 | 104 | 92.6 | 106 | 99.6 | 101 | 100 | 95.7 | 107
CCC[N+]12[C@H](O)[C@@H](CC)[C@@H]3C[C@H]1[C@@H]1N(C)c4ccccc4[C@]14C[C@H]2[C@@H]3[C@H]4O [neo-gilurytmal] | > 10 | > 10 | > 10 | > 10 | > 10 | 0 | 0 | 0 | 1.3 | 0 | 104 | 98 | 96.4 | 100 | 91.4 | 100 | 95.7 | 101 | 91.5 | 101 | 93.4 | 99.1 | 92.3 | 97.8 | 104 | 103 | 99.3 | 92.6 | 86.2 | 93.1 | 100 | 99.4 | 98.4 | 97.4 | 95.7
COc1ccc(C2CNC(=O)C2)cc1OC1CCCC1 (stereo not given) [rolipram] | > 10 | > 10 | > 10 | > 10 | > 10 | 0 | 0 | 0 | 0 | 0.0667 ± 0.12 | 98.2 ± 12 | 97.6 ± 12 | 103 ± 5.5 | 98.4 ± 3.5 | 103 ± 1.6 | 96.2 ± 1.5 | 97 ± 4.4 | 96.1 ± 2.3 | 99.1 ± 0.14 | 101 ± 2.9 | 102 ± 3.5 | 102 ± 6.4 | 101 ± 5.8 | 106 ± 5.5 | 101 ± 2.2 | 95.2 ± 7.2 | 96.4 ± 2.8 | 97.7 ± 5.3 | 98.8 ± 7.4 | 110 ± 4.9 | 93.6 ± 10 | 95.1 ± 8.9 | 94.4 ± 4.2 | 96.8 ± 4.5 | 102 ± 4.8
CC(C)(C)OC(=O)c1ncn2c1[C@@H]1CCCN1C(=O)c1c(Br)cccc1-2 [bretazenil] | > 10 | > 10 | > 10 | > 10 | > 10 | 0 | 0 | 0 | 0 | 0 | 90 | 92.9 | 98.2 | 99.8 | 96 | 98.2 | 98.8 | 105 | 92.6 | 98.2 | 83.1 | 94.1 | 95.2 | 105 | 103 | 94 | 93.9 | 99.3 | 96.1 | 100 | 91.1 | 100 | 95.5 | 96.5 | 104
NCC(=O)O [AZD4282] | > 10 | > 10 | > 10 | > 10 | > 10 | 0 | 0 | 0 | 0 | 0 | 86.3 | 101 | 96.3 | 102 | 97.3 | 93.7 | 96.7 | 100 | 98.9 | 102 | 95.3 | 96 | 96.6 | 102 | 101 | 99 | 104 | 86.4 | 99.7 | 103 | 102 | 103 | 99.3 | 104 | 100
